Experimental data taken from US20220307013A1, “GENE FRAGMENT OVEREXPRESSION SCREENING METHODOLOGIES, AND USES THEREOF” (priority 2019, published 2022).
“Also recorded” adds a separate entry of the source. Where no end group is shown, it is not given here.

Assays:
[1] = system: Colo205; assay: Cell proliferation assay (CellTiter-Glo), Colo205; type: cell-based; conditions: Colo205, Human Colon, 72 hrs
Method: (§1) Cell Proliferation Assay. The Tat-RAF1-73, Tat-RAF1-78, Tat-EGFR-697 and Tat-Flag peptides were tested for growth inhibition in an in vitro cell proliferation assay. The assay tested the peptides against ten tumor cell lines and four non-tumor cell lines (Primary Fibroblasts, CCD 841 CoN, human umbilical vein cells and Human Hepatocytes). Cells were plated in a 384 well plate and allowed to grow for 24 hrs. Peptides were then added to cultures at a final concentration range of 100 μM-0.2 μM. Cells and peptides were then reacted for 72 hrs, after which the CellTiter-Glo Luminescent Cell Viability Assay kit (Promega) was used to assess cytotoxicity of therapeutic peptides. IC50 values were determined by the percent cell growth of the untreated (vehicle) control calculated from the luminescence signals compared to test wells. The surviving fraction of cells is determined by dividing the mean luminescence values of the test agents by the mean luminescence values of the untreated control. The inhibitory concentration value, IC50, for the test agents and control was estimated using Prism 8 software (GraphPad Software, Inc.) by curve- fitting the data using the non-linear regression analysis.

[2] = system: Jurkat; assay: Cell proliferation assay (CellTiter-Glo), Jurkat; type: cell-based; conditions: RAF1 mRNA (Log2) 6.05, 72 hrs
Method: as §1

[3] = system: MDA-MB-231; assay: Cell proliferation assay (CellTiter-Glo), MDA-MB-231; type: cell-based; conditions: MDA-MB-231, EGFR mRNA (Log2) 4.78, 72 hrs
Method: as §1

[4] = system: A549; assay: Cell proliferation assay (CellTiter-Glo), A549; type: cell-based; conditions: A549, RAF1 mRNA (Log2) Negative, 72 hrs
Method: as §1

[5] = system: HT1376; assay: Cell proliferation assay (CellTiter-Glo), HT1376; type: cell-based; conditions: HT1376, EGFR mRNA (Log2) 5., 72 hrs, starred value was averaged using >100 μM value for one trial result
Method: as §1

[6] = system: SK-MEL-5; assay: Cell proliferation assay (CellTiter-Glo), SK-MEL-5; type: cell-based; conditions: SK-MEL-5, EGFR mRNA (Log2) 5.92, 72 hrs
Method: as §1

[7] = system: ten tumor cell lines and four non-tumor cell lines; assay: Cell proliferation assay (CellTiter-Glo), summary over the cell panel; type: cell-based; conditions: any of the cells screened
Method: as §1
Ten cancer cell lines were screened as well as […] non-cancer cell types (e.g. primary fibroblasts, CCD 841 CoN, and human hepatocytes). […]

[8] = system: CCD 841 CoN; assay: Cell proliferation assay (CellTiter-Glo), CCD 841 CoN; type: cell-based; conditions: Normal Human Colon (non-tumor), 72 hrs
Method: as §1

[9] = system: H929; assay: Cell proliferation assay (CellTiter-Glo), H929; type: cell-based; conditions: H929, Human Multiple Myeloma, peptides 100 μM-0.2 μM, 72 hrs
Method: as §1

[10] = system: FaDu; assay: Cell proliferation assay (CellTiter-Glo), FaDu; type: cell-based; conditions: EGFR mRNA (Log2) 6.28, 72 hrs
Method: as §1

[11] = system: Human Hepatocytes; assay: Cell proliferation assay (CellTiter-Glo), Human Hepatocytes; type: cell-based; conditions: Human Hepatocytes (non-tumor), 72 hrs
Method: as §1

[12] = system: Human umbilical vein endothelial cells (HUVEC); assay: Cell proliferation assay (CellTiter-Glo), HUVEC; type: cell-based; conditions: Normal endothelial (non-tumor), 72 hrs
Method: as §1

[13] = system: SNU398; assay: Cell proliferation assay (CellTiter-Glo), SNU398; type: cell-based; conditions: SNU398, RAF1 mRNA (Log2) 6.07, 72 hrs
Method: as §1

[14] = system: HUH6-luc; assay: Cell proliferation assay (CellTiter-Glo), HUH6-luc; type: cell-based; conditions: RAF1 mRNA (Log2) 6.05, 72 hrs
Method: as §1

[15] = system: Primary Fibroblasts; assay: Cell proliferation assay (CellTiter-Glo), Primary Fibroblasts; type: cell-based; conditions: Skin Fibroblast (non-tumor), 72 hrs
Method: as §1

[16] = system: MDA-MB-231 cells; assay: Arrayed validation of lentivirally delivered gene fragments, WST-8 cell growth, MDA-MB-231; conditions: 7 days, vs GFP control
Method: (§2) All cell lines used were cultured in DMEM media supplemented with 10% FBS. The fitness impact of highly depleted gene fragments was tested in an arrayed format via a WST-8 (Dojindo) cell growth assay. […] Cells were transduced at an MOI of 4 and switched to puromycin containing media after 48 hours. Following 24 hours of puromycin selection 1,500 cells were seeded per well as biological replicates in a 96 well plate. All experimental groups for Hs578T cells had n=4. […] For HEK293T and MCF-7 cells all experimental groups had n=8. 2 μg/ml puromycin was used to select Hs578T and MCF-7 cells, while 3.5 μg/ml puromycin was used to select MDA-MB-231 and HEK293T cells. […] Cell growth was then quantified via absorbance at 450 nm following 1.5 hrs of incubation with WST-8 reagent. A two-tailed P value was then calculated via an unpaired ttest with Welch's correction.

[17] = system: HEK293T cells; assay: Arrayed validation of lentivirally delivered gene fragments, WST-8 cell growth, HEK293T
Method: as §2

[18] = system: Hs578T cells; assay: Arrayed validation of lentivirally delivered gene fragments, WST-8 cell growth, Hs578T; conditions: 7 days, vs GFP control
Method: as §2

[19] = system: triple-negative breast cancer cell growth; assay: Inhibition of cell growth by drug-like peptides (summary statements); type: cell-based; conditions: compared with FDA approved small molecules
Method: Engineering Peptides for Exogenous Delivery. Peptides shown in FIG. 3B were fused to an N-terminal cell penetrating motif via a (GS)3 linker sequence (Table 5) and chemically synthesized by GenScript's Custom Peptide Synthesis service at crude purity. For dose response experiments, cells were plated in 96 well plates (n=4) at 50% confluency and peptides were added at the indicated concentrations with cell viability quantified after 24hrs via the WST-8 assay. Cell viability was normalized to that of an untreated control on the same plate.

[20] = system: MCF-7 cells; assay: Arrayed validation of lentivirally delivered gene fragments, WST-8 cell growth, MCF-7
Method: as §2

GRKKRRQRRRPPQGSGSGSDYKDHDGDYKDHDIDYKDDDDK [Tat-Flag, reference compound]
IC50 [1]: > 100 µM
IC50 [2]: > 100 µM
IC50 [3]: > 100 µM
IC50 [4]: > 100 µM
IC50 [5]: > 100 µM
IC50 [6]: > 100 µM
activity in the cells screened [7]: no activity
IC50 [8]: > 100 µM
IC50 [9]: > 100 µM
IC50 [10]: > 100 µM
IC50 [11]: > 100 µM
IC50 [12]: > 100 µM
IC50 [13]: > 100 µM
IC50 [14]: > 100 µM
IC50 [15]: > 100 µM

GRKKRRQRRRPPQGSGSGSMEAPNQALLRILKETEFKKIKVLGSGAFGTVYKGLWIPEGE [Tat-EGFR-697]
IC50 [1]: 19.8 µM
IC50 [2]: 41.1 µM
IC50 [3]: 56.6 µM
IC50 [4]: 59.6 µM
IC50 [5]: 95.6 µM
IC50 [6]: 27.6 µM
IC50 [8]: > 100 µM
IC50 [9]: 5.1 µM
IC50 [10]: 89.2 µM
IC50 [11]: 11.6 µM
IC50 [12]: 14 µM
IC50 [13]: 29.2 µM
IC50 [14]: 73.5 µM
IC50 [15]: 15.1 µM

MEAPNQALLRILKETEFKKIKVLGSGAFGTVYKGLWIPEGE [EGFR-697]
cell growth after lentiviral overexpression (WST-8) [16]: deleterious to cell growth
cell growth after lentiviral overexpression (WST-8) [17]: no growth defects
cell growth after lentiviral overexpression (WST-8) [18]: deleterious to cell growth; also recorded: significant growth arrest
triple-negative breast cancer cell growth in vitro [19]: opposed triple-negative breast cancer cell growth in vitro as effectively as some FDA approved small molecules
cell growth after lentiviral overexpression (WST-8) [20]: reduced fitness defect

MFVDEYDPTIEDSYRKQVVIDGETCLLDILDTAGKEEYSAM [KRAS61K-7]
cell growth after lentiviral overexpression (WST-8) [16]: significantly reduced cell growth
cell growth after lentiviral overexpression (WST-8) [18]: significantly reduced cell growth

MIQNHFVDEYDPTIEDSYRKQVVIDGETCLLDILDTAGKEE [KRAS61K-3]
cell growth after lentiviral overexpression (WST-8) [16]: significantly reduced cell growth
cell growth after lentiviral overexpression (WST-8) [18]: significantly reduced cell growth

MPTIEDSYRKQVVIDGETCLLDILDTAGKEEYSAMRDQYMR [KRAS61K-13]
cell growth after lentiviral overexpression (WST-8) [16]: significantly reduced cell growth
cell growth after lentiviral overexpression (WST-8) [18]: significantly reduced cell growth

MRNGMSLHDCLMKALKVRGLQPECCAVFRLLHEHKGKKARL (cysteines drawn unpaired) [RAF1-73]
cell growth after lentiviral overexpression (WST-8) [17]: no growth defects
triple-negative breast cancer cell growth in vitro [19]: opposed triple-negative breast cancer cell growth in vitro as effectively as some FDA approved small molecules
